In patent US12215133B2 (BrightGene Bio-Medical Technology Co., Ltd., priority 2021, dated 2025):
Where two headings read alike, the source gives them in different places. Marks after values point to notes of the source that are not given here.

Tested on: C57BL/6 mouse model having STZ-HFD feed-induced diabetes combined NASH
Type: in vivo
Conditions: STZ+HFD C57BL/6 mice; for Fasting blood glucose / Ballooning lesion (score) / Inflammatory cell infiltration (score) / Steatosis (score) / Total score of NAS / Fibrosis percentage / % HbAC (glycosylated hemoglobin) / ALT / AST / HDL-c / LDL-c / TC / TG / Percentage of decrease in % HbAC: Mean ± SEM; for Ballooning lesion (score) / Inflammatory cell infiltration (score) / Steatosis (score) / Total score of NAS / Fibrosis percentage / % HbAC (glycosylated hemoglobin) / ALT / AST / HDL-c / LDL-c / TC / TG: 7 weeks; for Ballooning lesion (score) / Inflammatory cell infiltration (score) / Steatosis (score) / Total score of NAS: liver H&E; for Ballooning lesion (score) / Inflammatory cell infiltration (score) / Steatosis (score): NAS criteria; for Fibrosis percentage: liver sirius red staining; for % HbAC (glycosylated hemoglobin): peripheral blood; for ALT / AST / HDL-c / LDL-c / TC / TG: serum; for HbA1c % decreased by, taking the HbA1C % of the model group as the baseline value: FIG. 20; for Percentage of decrease in % HbAC: model group as baseline; for Number of animal deaths: 13 enrolled
Description: According to the dosage regimen, a certain amount of Tirzepatide and BG128 were weighed and the vehicle (pH=7.0, 20 mM sodium citrate buffer) was added to formulated to the corresponding concentration.
• Germline: C57BL/6 • Grade: SPF level • Number and gender: 30 pregnant female mice • Supplier: Shanghai Jihui Laboratory Animal Care Co., Ltd. 1.3.2 Animal Feeding Management
Animals were kept in the barrier system, the environmental conditions in the animal room were controlled as room temperature of 20° C.-26° C. and humidity of 40%-70%, and the breeders recorded once every morning and afternoon. Free drinking and normal feeding.
Newborn male mice were subcutaneously injected with STZ (100 μg/mouse) within 48 h of birth and fed by the female mice for four weeks, then the fasting blood glucose of the male mice was determined.
10 newborn male mice were selected, without STZ injection, and fed by the female mice for four weeks. The male mice were separated into cages and fed with normal maintenance feed and used as the normal control group; other mice were fed with HFD feed for one week, the fasting blood glucose of the animals was determined, and according to the fasting blood glucose and body weight, the animals were randomly grouped into: normal control group, model group, Tirzepatide—0.15 mg/kg group, BG128—0.05 mg/kg group, BG128—0.15 mg/kg group, and BG128—0.5 mg/kg group, and see Table 12 for details.
Administration began on the first day of week 2 of HFD feed feeding, and the experiment was ended after 7 weeks of continuous administration.
Observation was performed at the start of the experiment once a day until the end of the experiment.
The animals were weighed once every three days from the time of feeding with HFD feed until the end of the experiment.
The food intake of the animals was recorded from the time of feeding with HFD feed until the end of the experiment. The remaining amount was weighed before administration each time.
The fasting blood glucose was determined using the Roche blood glucose meter after 4 weeks of breast-feeding by the female mouse (that is, before HFD feeding), before administration, and 1 week, 2 weeks, 3 weeks, 4 weeks, 5 weeks, 6 weeks and 7 weeks after administration and at the end point of experiment.
3 days after the last administration, the animals were weighed and fasted for 6 hours; all experimental animals were anesthetized by intraperitoneal injection of pentobarbital sodium, non-anticoagulated whole blood was collected through the orbital venous plexus, stood at room temperature for 30 minutes, and centrifuged at 5000 rpm for 5 minutes, the serum was separated and frozen at −80° C. for the biochemical determination; and EDTA-K2 anticoagulated whole blood was collected through the orbital venous plexus and placed on wet ice for the determination of HbA1C content.
The serum sample was taken from −80° C., and the contents of ALT, AST, TG, TC, HDL-c and LDL-c in serum and HbA1C in whole blood were determined by Hitachi 7060 automatic biochemical detector, and the content of insulin was determined by enzyme-linked immunosorbent assay kit.
The mice were dissected according to procedure. After perfusion with pre-cooled normal saline, the liver was taken, photographed, weighed, soaked in 10% formalin and fixed for pathological HE staining. Liver paraffin sections of all animals were stained with HE according to KCI pathological staining standard SOP. All the stained sections were panoramically scanned by NanoZoomer Digital Pathology (S210, Hamamaci, Japan) scanner, and then observed at different magnifications by selecting different fields of view.
The mice were dissected according to procedure. After perfusion with pre-cooled normal saline, the liver was taken, photographed, weighed, soaked in 10% formalin and fixed for pathological sirius red (SR) staining. Liver paraffin sections were stained with SR according to KCI pathological staining standard SOP.

[1] = 0.05 mg/kg s.c. once every three days
[2] = 0.15 mg/kg s.c. once every three days
[3] = 0.5 mg/kg s.c. once every three days

CNC(CCCCNC(=O)COCCOCCOCCNC(=O)COCCOCCOCCNC(=O)CCC(NC(=O)CC(=O)O)C(=O)O)C(N)=O (centres unmarked) [BG128]
Fasting blood glucose (0.05 mg/kg group, Before HFD (baseline)): 18.28 ± 1.18 mmol/L | Fasting blood glucose (0.05 mg/kg group, Before administration (baseline)): 25.59 ± 0.91 mmol/L | Ballooning lesion (score) [1]: 0.00 ± 0.00 | Inflammatory cell infiltration (score) [1]: 0.91 ± 0.08ª | Steatosis (score) [1]: 0.52 ± 0.12ª | Total score of NAS [1]: 1.42 ± 0.14ª | Fibrosis percentage [1]: 1.11 ± 0.05^a % | % HbAC (glycosylated hemoglobin) [1]: 1.00 ± 0.23 | ALT [1]: 73.97 ± 9.20 U/L | AST [1]: 155.44 ± 10.85 U/L | HDL-c [1]: 2.30 ± 0.09 mmol/L | LDL-c [1]: 0.56 ± 0.03^b mmol/L | TC [1]: 3.81 ± 0.15^c mmol/L | TG [1]: 1.09 ± 0.20^b mmol/L | Fasting blood glucose (0.05 mg/kg s.c. once every three days, Administration for 1 week): 15.62 ± 1.42^a mmol/L | Fasting blood glucose (0.05 mg/kg s.c. once every three days, Administration for 2 weeks): 14.13 ± 1.61^a mmol/L | Fasting blood glucose (0.05 mg/kg s.c. once every three days, Administration for 3 weeks): 16.89 ± 1.85^a mmol/L | Fasting blood glucose (0.05 mg/kg s.c. once every three days, Administration for 4 weeks): 12.89 ± 1.83^a mmol/L | Fasting blood glucose (0.05 mg/kg s.c. once every three days, Administration for 5 weeks): 18.32 ± 1.62^a mmol/L | Fasting blood glucose (0.05 mg/kg s.c. once every three days, Administration for 6 weeks): 21.82 ± 2.11^a mmol/L | Fasting blood glucose (0.05 mg/kg s.c. once every three days, Administration for 7 weeks): 18.89 ± 1.89^a mmol/L | Fasting blood glucose (0.05 mg/kg s.c. once every three days, Endpoint): 15.81 ± 1.83^a mmol/L | serum insulin concentration (0.05 mg/kg s.c. once every three days, FIG. 19): decreased | HbA1c % decreased by, taking the HbA1C % of the model group as the baseline value [1]: 0.97% | Percentage of decrease in % HbAC [1]: −0.97 ± 0.23 | Fasting blood glucose (0.15 mg/kg group, Before HFD (baseline)): 17.69 ± 0.81 mmol/L | Fasting blood glucose (0.15 mg/kg group, Before administration (baseline)): 25.71 ± 0.91 mmol/L | tolerance of model animals [2]: good tolerance | Ballooning lesion (score) [2]: 0.00 ± 0.00ª | Inflammatory cell infiltration (score) [2]: 0.90 ± 0.06ª | Steatosis (score) [2]: 0.46 ± 0.13ª | Total score of NAS [2]: 1.36 ± 0.15ª | Fibrosis percentage [2]: 1.10 ± 0.04^b % | % HbAC (glycosylated hemoglobin) [2]: 1.31 ± 0.19 | ALT [2]: 67.58 ± 7.73^a U/L | AST [2]: 152.48 ± 6.56^a U/L | HDL-c [2]: 1.83 ± 0.22 mmol/L | LDL-c [2]: 0.65 ± 0.10^c mmol/L | TC [2]: 3.25 ± 0.12^c mmol/L | TG [2]: 0.84 ± 0.12^b mmol/L | Fasting blood glucose (0.15 mg/kg s.c. once every three days, Administration for 1 week): 15.43 ± 1.66^a mmol/L | Fasting blood glucose (0.15 mg/kg s.c. once every three days, Administration for 2 weeks): 14.61 ± 1.45^a mmol/L | Fasting blood glucose (0.15 mg/kg s.c. once every three days, Administration for 3 weeks): 14.83 ± 1.49^a mmol/L | Fasting blood glucose (0.15 mg/kg s.c. once every three days, Administration for 4 weeks): 14.52 ± 2.09^a mmol/L | Fasting blood glucose (0.15 mg/kg s.c. once every three days, Administration for 5 weeks): 15.75 ± 1.81^a mmol/L | Fasting blood glucose (0.15 mg/kg s.c. once every three days, Administration for 6 weeks): 17.88 ± 2.05^a mmol/L | Fasting blood glucose (0.15 mg/kg s.c. once every three days, Administration for 7 weeks): 17.26 ± 1.97^a mmol/L | Fasting blood glucose (0.15 mg/kg s.c. once every three days, Endpoint): 16.85 ± 2.04^a mmol/L | serum insulin concentration (0.15 mg/kg s.c. once every three days, FIG. 19): statistically significant compared with the db/db-NDJ group | HbA1c % decreased by, taking the HbA1C % of the model group as the baseline value [2]: 0.66% | Percentage of decrease in % HbAC [2]: −0.66 ± 0.19 | Fasting blood glucose (0.5 mg/kg group, Before HFD (baseline)): 18.59 ± 0.88 mmol/L | Fasting blood glucose (0.5 mg/kg group, Before administration (baseline)): 25.81 ± 1.08 mmol/L | tolerance of model animals (0.50 mg/kg s.c. once every three days): good tolerance | Ballooning lesion (score) [3]: 0.00 ± 0.00 | Inflammatory cell infiltration (score) [3]: 1.03 ± 0.05ª | Steatosis (score) [3]: 0.33 ± 0.08ª | Total score of NAS [3]: 1.36 ± 0.10ª | Fibrosis percentage [3]: 1.07 ± 0.05^c % | % HbAC (glycosylated hemoglobin) [3]: 0.94 ± 0.25^a | ALT [3]: 58.46 ± 5.38^b U/L | AST [3]: 150.54 ± 6.26^a U/L | HDL-c [3]: 2.13 ± 0.13 mmol/L | LDL-c [3]: 0.62 ± 0.03^c mmol/L | TC [3]: 3.53 ± 0.09^c mmol/L | TG [3]: 0.88 ± 0.14^b mmol/L | Fasting blood glucose (0.5 mg/kg s.c. once every three days, Administration for 1 week): 11.39 ± 0.86^a mmol/L | Fasting blood glucose (0.5 mg/kg s.c. once every three days, Administration for 2 weeks): 12.82 ± 1.12^a mmol/L | Fasting blood glucose (0.5 mg/kg s.c. once every three days, Administration for 3 weeks): 13.35 ± 1.37^a mmol/L | Fasting blood glucose (0.5 mg/kg s.c. once every three days, Administration for 4 weeks): 11.39 ± 1.20^a mmol/L | Fasting blood glucose (0.5 mg/kg s.c. once every three days, Administration for 5 weeks): 12.31 ± 1.47^a mmol/L | Fasting blood glucose (0.5 mg/kg s.c. once every three days, Administration for 6 weeks): 12.17 ± 1.70^abd mmol/L | Fasting blood glucose (0.5 mg/kg s.c. once every three days, Administration for 7 weeks): 10.45 ± 1.34^acd mmol/L | Fasting blood glucose (0.5 mg/kg s.c. once every three days, Endpoint): 12.27 ± 1.61^a mmol/L | serum insulin concentration (0.5 mg/kg s.c. once every three days, FIG. 19): statistically significant compared with the db/db-NDJ group | HbA1c % decreased by, taking the HbA1C % of the model group as the baseline value [3]: 1.04% | Percentage of decrease in % HbAC [3]: −1.04 ± 0.25 | Number of animal deaths (Group-3/Group-5, 0.15 mg/kg s.c. once every three days): 0 | Number of animal deaths (Group-4, 0.05 mg/kg s.c. once every three days): 2 (Day 45, 51) | Number of animal deaths (Group-6, 0.5 mg/kg s.c. once every three days): 0 | body weight after the first administration (Tirzepatide 0.15 mg/kg, BG128 0.05, 0.15, 0.5 mg/kg s.c., FIG. 16): positively correlated with the administration dose | food intake compared with Tirzepatide (equal dose (0.15 mg/kg s.c.), FIG. 17): lower than that of the Trizepatide administration animals in the group with the equal dose | effect on serum insulin compared with Tirzepatide (equal dose (0.15 mg/kg s.c.), FIG. 19): better than that of the Tirzepatide group at an equal dose
